Measurements reported in PMC4501059, “Responding to the challenge of untreatable gonorrhea: ETX0914, a first-in-class agent with a distinct mechanism-of-action against bacterial Type II topoisomerases” (Scientific Reports, 2015).
Like-named read-outs stand apart in the source and are kept apart here.

Legend:
Dog pharmacokinetics = type: in vivo, Beagle dog
Description: (§1) AZD0914 was analyzed in mouse, rat, dog, monkey plasma using a qualified method which was later validated for human plasma analysis. The validated human method is described below and is representative of the approach taken in other species. AZD0914 was determined in human plasma prepared with K2EDTA as an anticoagulant. AZD0914 and an internal standard (^13C2, ^15N2 AZD0914) were extracted from plasma with tert- butyl methyl ether. After evaporating to dryness under a stream of nitrogen, the residue was reconstituted and quantitated by reverse phase HPLC-MS/MS against a standard curve from 1.00 to 5000 ng/ml. Separation was achieved using a gradient which went from 55% to 85% methanol:acetonitrile (1:1) containing 0.2% formic acid as mobile phase B and 0.2% formic acid in water as mobile phase A at a flow rate of 0.60 ml/min through a Phenomonex Gemini C18 column (50 x 2.0 mm column, […]) heated using a Shimadzu CTO-20AC set to 40 °C. AZD0914 was detected in multiple reaction monitoring (MRM) mode by positive ion electrospray ionization using a Sciex API5500 (Toronto, Canada) mass spectrometer. The ion spray voltage was set to 5500 V and turboionspray temperature was 650 °C. AZD0914 was quantitated using the MRM transition 488.2 → 348.2 using a collision energy of 29 eV. The internal standard, (^13C2, ^15N2 AZD0914), was monitored using identical conditions except for the MRM transition of 492.2 → 348.2.

S. aureus Topo IV = S. aureus Topo IV (Staphylococcus aureus, UniProt P0C1S7+P0C1U9); test: S. aureus Topo IV cleaved complex ligation assay; type: biochemical; settings: free Mg2+ 0.06 μM to 8 mM
[1] = hepatocyte intrinsic clearance; type: in vitro ADME; settings: male, Beagle, dog hepatocytes
Text: Supplement srep11827-s1.doc, table 4 | column: Beagle dog (male)

[2] = Single dose pharmacokinetics, mouse; type: in vivo, CD-1 mouse
Description: as §1

[3] = Phase 1 study in healthy volunteers, oral suspension; type: in vivo, human
Description: A Phase 1 multipart study[65] in healthy adult volunteers (informed consent with males and females of non-childbearing potential) with ETX0914 was performed under approval of the AstraZeneca Innovative Medicines Safety Review Board and the United States Food and Drug Administration. ETX0914 was administered orally as an aqueous suspension containing 1% w/v povidone K29–32, 0.2% m/v sodium lauryl sulfate and 0.25% w/v glycerin. In Part A of this study, 48 healthy subjects (ranging in age from 19 to 55 years) under fasting conditions received single ascending doses of 200–4000 mg formulated ETX0914 or placebo (6:2, ETX0914:placebo). In Part B, a second set of 18 healthy subjects (ranging in age from 22 to 48 years) were randomized into two equal dosing cohorts receiving a single dose of either 1500 mg ([…]) or 3000 mg ([…]) of ETX0914 in the fasting state and 30 minutes after a meal. Safety monitoring for both Parts A and B included vital signs, electrocardiogram, continuous telemetry, safety laboratory testing (clinical chemistry, haematology and urinalysis) and adverse events monitoring. Blood samples (1 mL) were collected at 0.5, 1, 1.5, 2, 2.5, 3, 4, 5, 6, 8, 10, 12, 24, 36, 48 and 72 h post dose. Urine samples were collected during−12 to 0 hours pre-dose, and 0 to 4, 4 to 8, 8 to 12, 12 to 24, 24 to 48, and 48 to 72 h post-dose. PK parameters were separately determined for the cohorts in each of the Part A and Part B studies. Concentrations of ETX0914 in the plasma and urine were quantified by LC-MS/MS. Plasma PK parameters were calculated using Phoenix WinNonLin software.
as §1

Streptococcus agalactiae = tested on: Streptococcus agalactiae; parameters: method as in ref 2 (supplement); settings: 441 tested; ref 2 (supplement); cited from earlier work
Haemophilus influenzae = tested on: Haemophilus influenzae; parameters: method as in ref 2 (supplement); settings: 352 tested; ref 2 (supplement); cited from earlier work
Mycoplasma pneumoniae = tested on: Mycoplasma pneumoniae; parameters: method as in ref 3 (supplement); settings: 21 tested; ref 3 (supplement); cited from earlier work
hERG = hERG (Homo sapiens, UniProt Q12809); test: In vitro ion channel function
[4] = both sexes, human, plasma, oral, 3000 mg, fasting

## C[C@@H]1CN2c3c(cc4c(N5C(=O)OC[C@@H]5C)noc4c3F)CC3(C(=O)NC(=O)NC3=O)[C@H]2[C@H](C)O1 [ETX0914]
Dog pharmacokinetics; Beagle dog (male)
  Ka: 1.2 h⁻¹
Dog pharmacokinetics; beagle, dog, plasma
  Dog F: 71%
  clearance: 0.24 L/h/kg
Dog pharmacokinetics; plasma, Beagle dog (male), IV 2.5 mg/kg, read-out: Clp (IV)
  clearance: 0.24 L/h/kg
Dog pharmacokinetics; plasma, Beagle dog (male), IV 2.5 mg/kg, read-out: T1/2 (IV) (converted)
  half-life: 3 h
Dog pharmacokinetics; plasma, Beagle dog (male), IV 2.5 mg/kg, read-out: Vss (IV)
  Vd: 0.8 L/kg
Dog pharmacokinetics; plasma, Beagle dog (male), IV 2.5 / PO 5 mg/kg
  bioavailability: 71%
Dog pharmacokinetics; plasma, Beagle dog (male), PO 5 mg/kg
  Cmax: 7.1 µM
Dog pharmacokinetics; plasma, Beagle dog (male), PO 5 mg/kg, read-out: T1/2 (PO) (converted)
  half-life: 3.1 h
S. aureus Topo IV
  re-ligation of inhibitor-induced cleaved DNA on removal of Mg2+: No ligation is observed
[1]
  hepatocyte CLint at 1 µM: 3.8 µL/min/1e6 cells
[2]; CD-1, plasma, mouse, ABT pre-dosing, read-out: CLp after pre-dosing with 1-aminobenzotriazole (ABT)
  clearance: 0.9 L/h/kg
[2]; CD-1 mouse (female)
  Ka: 1.7 h⁻¹
[2]; mouse
  lowering of CLp by ABT pre-dosing: ~5 fold
[2]; plasma, CD-1 mouse (female), IV 3 mg/kg, read-out: Clp (IV)
  clearance: 4.2 L/h/kg
[2]; plasma, CD-1 mouse (female), IV 3 mg/kg, read-out: T1/2 (IV) (converted)
  half-life: 0.5 h
[2]; plasma, CD-1 mouse (female), IV 3 mg/kg, read-out: Vss (IV)
  Vd: 3.6 L/kg
[2]; plasma, CD-1 mouse (female), IV 3 / PO 10 mg/kg
  bioavailability: 46%
[2]; plasma, CD-1 mouse (female), PO 10 mg/kg
  Cmax: 1.7 µM
[2]; plasma, CD-1 mouse (female), PO 10 mg/kg, read-out: T1/2 (PO) (converted)
  half-life: 1.6 h
[3]; 3000 mg
  increase in AUC with high fat meal: > 40%
[3]; Phase 1, 200–4000 mg
  serious adverse events: No serious adverse events
[3]; Phase 1, reversible in all subjects
  mild and non-serious AEs: transient dysgeusia and headache
[3]; [4]
  AUC: 195 µg·h/mL
  Cmax: 22.9 µg/mL
[3]; both sexes, human, plasma, oral, 3000 mg, fasting, read-out: Tmax
  Tmax: 2.2 h
[3]; both sexes, human, plasma, oral, 3000 mg, preceded by a high fat meal
  AUC: 281 µg·h/mL
[3]; both sexes, human, plasma, oral, 3000 mg, with food
  Cmax: 24 µg/mL
[3]; both sexes, human, plasma, oral, 3000 mg, with food, read-out: Tmax
  Tmax: 4 h
[3]; both sexes, human, plasma, oral, 8 to 72 hour post-dose period
  half-life: 5.2 to 6.25 h
[3]; both sexes, human, plasma, po, fasting, 200–4000 mg single oral dose, read-out: median Tmax
  Tmax: 1.5 to 2.26 h
[3]; both, human, urine, po
  oral dose excreted as parent drug in urine: Less than 5%
[3]; highest 4000 mg dose
  margin of human AUC to NOAEL in dog: 4.8 fold
  margin of human AUC to NOAEL in rat: 6.4 fold
  margin of human Cmax to NOAEL in dog: 3.7 fold
  margin of human Cmax to NOAEL in rat: 4.9 fold
[3]; human AUC0-24h versus dose
  doses at which the efficacious AUC was exceeded: > 800 mg
Streptococcus agalactiae
  MIC90: 0.25^2 µg/ml
  MIC Range: 0.03 to 0.5 mg/L
Haemophilus influenzae
  MIC90: 0.5^2 µg/ml
  MIC Range: 0.03 to 2.0 mg/L
Mycoplasma pneumoniae
  MIC90: 1.0^3 µg/ml
  MIC Range: 0.5 to 1.0 mg/L
hERG; hERG IC50, K^+ rectifying current/QT interval
  IC50: 316 µM
hERG; ion channels including hERG, Cmax at highest 4000 mg Phase 1 dose
  margin of ion channel IC50 relative to Cmax: greater than 10 fold
